From patent publication US11413328B2, “Methods for treating inflammatory conditions of the lungs” (priority 2016, dated 2022)
Bridges are numbered along the chain shown (N, C = ends). Where no end group is shown, it is not given here.

How the values were obtained:
[1] = tested on: murine house dust mite/Freunds complete adjuvant driven model of allergic asthma; experiment: Lung resistance and compliance after methacholine, HDM/Freunds adjuvant asthma model (Example 2); type: in vivo, BALB/c mice; settings: vs HDM challenged vehicle
Protocol: Female 7-10 weeks old BALB/c mice were randomly allocated into 7 study groups one day prior to study start and subcutaneously (SC) sensitized to house dust mite (100 μg HDM in 200 μL saline plus Freunds complete adjuvant in 0.9% saline). Mice were then intranasally (IN) challenged with HDM on day 14 (HDM 25 μg in 50 μL of saline). […] The initial dose was administered 60 minutes prior to challenge, and the subsequent doses approximately 6 hours apart. Lung function: Starting 48 hours after HDM challenge, measurements of lung resistance and lung compliance were carried out after methacholine challenge (3.125 MCH1; 6.25 MCH2; 12.5 MCH3 and 25 mg/mL MCH4) by anaesthetized, cannulated mice using DSI's Buxco Finepoint RC system. Data are represented as airway resistance at […] and as dose responsive curves.

[2] = tested on: murine house dust mite/Freunds complete adjuvant driven model of allergic asthma; experiment: Lung histopathology (H&E/PAS), HDM asthma model (Example 3); type: in vivo, BALB/c mice; settings: vs HDM challenged vehicle
Protocol: Treatment regime: Female 7-10 weeks old BALB/c mice randomly allocated into 4 study groups one day prior to study start were subcutaneously (SC) sensitized to house dust mite (100 μg HDM in 200 μL saline plus Freund's complete adjuvant in 0.9% saline). Mice were intranasally (IN) challenged with HDM on day 14 (HDM 25 μg in 50 μL of saline). hBD-2 was administered IN or orally (0.4 mg/kg TID IN; 0.4 mg/kg TID orally, 50 μL phosphate buffered saline) on day 14. The initial dose was administered 60 minutes prior to challenge, and the subsequent doses approximately 6 hours apart. […] Lungs from other 8 animals per group were inflated in situ with 10% buffered formalin, removed from thorax, placed individually in 10% buffered formalin, paraffin embedded in toto, sectioned and H&E/PAS stained. The paraffin blocks were retained for the IHC analysis. Cellular influx (mononuclears, eosinophils, neutrophils) was assessed semi-quantitatively on H&E stained slides separately for peri-bronchial/bronchiolar and perivascular space as follows: [table] Overall score for inflammation was calculated as sum of all individual scores.

[3] = tested on: microbiota of the intestine; experiment: 16S microbiota analysis, prophylactic defensin treatment in high fat diet model (Example 10); type: in vivo, mice
Text: Mice were housed in trios, 4 cages per group. Feed intake was registered daily just before lights were turned off at […]. Individual mice were subjected to experimental procedures in altered order both group and cage wise. Mice were kept at room temperature under a 12-hour light/dark cycle at SPF standard conditions. The treatment regime is described in FIG. 38. Mice were fed either a high fat diet (HFD) or a low fat (LF) control diet. The HFD contained 4 subgroups; 1 hBD2, 1 HD5, 1 hBD2/HD5 and 1 standard HFD without supplementation of defensins. Defensin concentration was 1.2 mg hBD2 per kg mouse per day. HD5 was given in equimolar concentration to hBD2. […] Microbial analyses were carried out to study the microbiota of the intestine. Longitudinal 16S characterization was conducted on 4 paired samples from 60 mice, 240 samples in total. Each mouse was sampled prior to diet change, 1 week post diet change, 4 weeks post diet change and at termination, thus ensuring a thorough characterization of the faecal microbiota as a result of defensin treatment.

[4] = tested on: IL-1β, TNF-α, IL-6, IL-10 and IFNγ in lung tissue homogenates; experiment: Cytokine ELISA in lung tissue homogenates, HDM asthma model (Example 2); type: in vivo, BALB/c mice; settings: vs HDM/vehicle
Protocol: Female 7-10 weeks old BALB/c mice were randomly allocated into 7 study groups one day prior to study start and subcutaneously (SC) sensitized to house dust mite (100 μg HDM in 200 μL saline plus Freunds complete adjuvant in 0.9% saline). Mice were then intranasally (IN) challenged with HDM on day 14 (HDM 25 μg in 50 μL of saline). […] The initial dose was administered 60 minutes prior to challenge, and the subsequent doses approximately 6 hours apart.
Lung sampling for cytokine analysis: After completion of every BAL, lungs were removed from the thorax, snap frozen in liquid nitrogen and stored frozen at −80 degrees Celsius until analysis of cytokine concentration of IL-1β, TNF-α, IL-6, IL-10 and IFNγ by ELISA.

[5] = tested on: murine house dust mite driven model of allergic asthma; experiment: Cell counts in BALF, prophylactic treatment in HDM asthma model (Example 9); type: in vivo, BALB/c mice; settings: prophylactic oral 0.4 mg/kg TID day 12 to day 14
Protocol: Female 7-10 weeks old BALB/c mice were randomly allocated into 5 study groups one day prior to study start and subcutaneously (SC) sensitized to house dust mite (100 μg HDM in 200 μL saline plus Freund's complete adjuvant in 0.9% saline). The mice were treated with hBD-2 orally and intranasally respectively at a dose of 1.2 mg/kg/day (0.4 mg/kg TID) starting on day 12 in the morning and continued TID at approximately 6 hours intervals. The last dose was administered on day 14 one hour prior to challenge. The total number of doses were 8 doses or a total of […] hBD-2. Mice were then intranasally (IN) challenged with HDM on day 14 (HDM 25 μg in 50 μL of saline).
Airway inflammation: At 48 hours post challenge, bronchoalveolar lavage was performed washing the lungs with 3 volumes of cold PBS (0.4; 0.3 and 0.3 mL, total 1 mL). Total and differential leucocyte cell counts were determined on an automated haematological analyser Sysmex XT-2000iV.

[6] = tested on: murine, infection induced, severe, steroid-insensitive, neutrophilic, allergic airways disease model of asthma; experiment: Differential leucocyte counts in BALF, Ovalbumin/C. muridarum steroid-insensitive asthma model; type: in vivo, BALB/c mice; settings: Ova sensitized, C. muridarum infected mice, hBD-2 IN 5 mg/kg day 30, 32, 34
Protocol: Female 6-8 weeks old BALB/c mice were intraperitoneally (IP) sensitized to ovalbumin 50 μg with the adjuvant alum 1 mg in 200 μL 0.9% saline. Mice were intranasally (IN) challenged with Ova on day 12-13 and day 33-34 (10 μg in 50 μL sterile saline).
Airway inflammation: Differential leucocyte counts were obtained from May-Grunwald Giemsa stained BALF cells, using a light microscope.

Sequence: GIGDPVTCLKSGAICHPVFCPRRYKQIGTCGLPGTKCCKKP (disulfide 8-37, 15-30, 20-38 (inferred)) [hBD-2, human beta defensin 2]
- decrease of pulmonary compliance ([1]; intranasal TID on day 14): effectively inhibited
- increase of airway resistance ([1]; intranasal TID on day 14): effectively inhibited
- decrease of pulmonary compliance ([1]; oral 0.4 mg/kg TID on day 14): effectively inhibited
- increase of airway resistance / AHR ([1]; oral, hBD-2 0.4 mg/kg TID, dexamethasone 1 mg/kg BID, day 14): effectively inhibited
- increase in histological inflammation of lung tissue ([2]; intranasal 0.4 mg/kg TID day 14): effectively inhibited
- increase in histological inflammation of lung tissue ([2]; oral 0.4 mg/kg TID day 14): effectively inhibited
- effect on microbial presence / microbial abundance ([3]; 1.2 mg hBD2 per kg per day in feed, HD5 equimolar, combination 50% + 50%): affected primarily the microbial presence
- abundance of Barnesiella in the colon ([3]; prophylactic treatment, p<0.03): statistically significant increase
- abundance of Lactobacillaceae in colon ([3]; prophylactic treatment, p=0.1): trend towards lower abundance
- IFN-γ level in lung tissue homogenates ([4]; intranasal): significant effects
- TNF-α level in lung tissue homogenates ([4]; intranasal): not significantly different from the control
- TNF-α level in lung tissue homogenates ([4]; oral (hBD2 0.4 mg/kg TID; dexamethasone 1 mg/kg BID)): significantly reduced
- IFN-γ level in lung tissue homogenates ([4]; oral (hBD-2 0.4 mg/kg TID; dexamethasone 1 mg/kg BID)): significant effects
- neutrophil counts in BALF [5]: significantly inhibited
- macrophages in BALF [6]: did not change
- neutrophil count in BALF [6]: complete normalization
- eosinophils in BALF ([6]; DEX IN 2 mg/kg day 32-34): did not change
